Earlier results on one substance are cited in article doi:10.1101/2023.04.08.536135v1 (bioRxiv, 2023).

In this series the test system is IDE.

Turning to “bradykinin (RPPGFSPFR; Bradykinin; UniProt P01042 381-389, looked up)”, the “rate of degradation by IDE relative to that of insulin” value was “at least 20 fold”.
